Our source for the IC50 values is US12209092B2, “Inhibitors of GLI1 as therapeutic agents” (NEW YORK UNIVERSITY, priority 2018, dated 2025).

The subject of the assay is Gli1-mediated transcription. The assay is described as follows: Gli1-mediated transcriptional luciferase reporter assay. In kind it is cell-based. The conditions noted are these: Shh-LIGHT2 cells, antagonist mode, purmorphamine 1.5 μM stimulation, 24 h. As for the experimental part: Gli1-mediated transcriptional luciferase reporter assay was performed using Shh-LIGHT2 cells in order to evaluate the effects on activation and inhibition of Gli1-mediated transcription by the compounds of the disclosure. Brief assay procedure is provided below. […] Shh-LIGHT2 cells were harvested from about 80% confluent 10-cm dish using 0.25% Trypsin-EDTA solution. Medium was removed, and cells were washed with 5 mL DPBS and aspirated. Then, 1 mL 0.25% Trypsin-EDTA solution was added to a 10-cm dish. The dish was placed in the incubator for 1-3 minutes, or until cells have detached. 3 mL of cell growth medium (DMEM, 10% FBS, 1% PenStrep, 1% sodium pyruvate, and 1% GlutaMax) was added to the 10-cm dish, and the contents were transferred to a conical tube. […] The cell assay plate was removed from incubator after cells reached confluency. The culture medium was then manually removed from the cell plates, and the plates were centrifuged at 200 rpm for 30 seconds. […] After 30 min incubation of antagonist, cells were stimulated with agonist (purmorphamine, 5 μL, 1.5 μM final), then incubate for 24 h at 37° C./5% CO2. […] Luciferase assay: After incubation, the cell assay plate was allowed to acclimate to room temperature. Then, 20 μL of Duo-Glo® Luciferase Reagent (Promega) was added to each well of cell assay plate. The plate was briefly spun down, mixed, and incubated for 30 minutes at room temperature. The cell plate was read using luminometer for firefly luminescence activity. Then, 20 μL of Duo-Glo® Step&Glo® Reagent (Promega) was added to each well of cell assay plate. The plate was briefly spun down, mixed, and incubated for 30 minutes at room temperature. The cell plate was read using luminometer for Renilla luminescence activity. Ratio of firefly: Renilla luminescence was calculated for each well. The compound well ratio was normalized to the ratio from a control well.

The mark [1] stands for this setting: firefly luminescence, read-out: Gli1 IC50 firefly.
Where [2] appears, read: ratio of firefly:Renilla luminescence, read-out: Gli1 IC50 firefly:Renilla ratio.

SMILES strings stand for the structures. Like-named read-outs stand apart in the source and are kept apart here.

`Clc1ccccc1-c1nc2c([nH]1)CN(C1CCc3cccc(Cl)c31)CC2` (stereo not drawn) [Example 106, 5-(7-chloro-2,3-dihydro-1H-inden-1-yl)-2-(2-chlorophenyl)-4,5,6,7-tetrahydro-3H-imidazo[4,5-c]pyridine]: the IC50 by setting is: under setting [1], 1000 to 50000 nM; under setting [2], 1000 to 50000 nM.
`Clc1ccccc1-c1nc2c([nH]1)CN(C1CCc3cc(Br)ccc3C1)CC2` (stereo not drawn) [Example 109, 5-(6-bromo-1,2,3,4-tetrahydronaphthalen-2-yl)-2-(2-chlorophenyl)-4,5,6,7-tetrahydro-3H-imidazo[4,5-c]pyridine]: the IC50 under setting [1] was 1000 to 50000 nM and the IC50 under setting [2] lay within 1000 to 50000 nM.
For `COc1cccc2c1CC(N1CCc3nc(-c4ccccc4Cl)n(CCO)c3C1)CC2` (stereo not drawn) [Example 130, 2-(2-(2-chlorophenyl)-5-(8-methoxy-1,2,3,4-tetrahydronaphthalen-2-yl)-4,5,6,7-tetrahydro-3H-imidazo[4,5-c]pyridin-3-yl)ethan-1-ol], the IC50 fell in the range of 1000 to 50000 nM under setting [1] and 1000 to 50000 nM under setting [2].
In the case of `Cn1c(-c2ccccc2Cl)nc2c1CN(C1CCc3cccc(C4CC4)c3C1)CC2` (stereo not drawn) [Example 161, 2-(2-chlorophenyl)-5-(8-cyclopropyl-1,2,3,4-tetrahydronaphthalen-2-yl)-3-methyl-4,5,6,7-tetrahydro-3H-imidazo[4,5-c]pyridine], the IC50 under setting [1] was 100 to 490 nM and the IC50 under setting [2] lay within 100 to 490 nM.
`Cn1c(-c2ccc(C3CC3)cc2Cl)nc2c1CN(C1CCc3ccc(Cl)cc3C1)CC2` (stereo not drawn) [Example 163, 5-(7-chloro-1,2,3,4-tetrahydronaphthalen-2-yl)-2-(2-chloro-4-cyclopropylphenyl)-3-methyl-4,5,6,7-tetrahydro-3H-imidazo[4,5-c]pyridine]: the IC50 under setting [1] is less than 100 nM and the IC50 under setting [2] is less than 100 nM.
Consider `Cn1c(-c2ccc(C3CC3)cc2Cl)nc2c1CCN(C1CCc3ccc(Cl)cc3C1)C2` (stereo not drawn) [Example 164, 5-(7-chloro-1,2,3,4-tetrahydronaphthalen-2-yl)-2-(2-chloro-4-cyclopropylphenyl)-1-methyl-4,5,6,7-tetrahydro-1H-imidazo[4,5-c]pyridine], for which the IC50 is 100 to 490 nM under setting [1] and 100 to 490 nM under setting [2].
For `Clc1ccccc1-c1nc2c([nH]1)CC(N1CCc3cccc(Cl)c3C1)CC2` (stereo not drawn) [Example 185, 8-chloro-2-(2-(2-chlorophenyl)-4,5,6,7-tetrahydro-1H-benzo[d]imidazol-6-yl)-1,2,3,4-tetrahydroisoquinoline], the IC50 is less than 100 nM under setting [1] and less than 100 nM under setting [2].
For the compound `Clc1ccccc1-c1nc2c([nH]1)C[C@@H](N1CCc3cccc(Cl)c3C1)CC2` [Example 185-S, (S)-8-chloro-2-(2-(2-chlorophenyl)-4,5,6,7-tetrahydro-1H-benzo[d]imidazol-6-yl)-1,2,3,4-tetrahydroisoquinoline], the IC50 is, setting by setting: under setting [1], 100 to 490 nM; under setting [2], less than 100 nM.
The corresponding values for `Clc1ccccc1-c1nc2c([nH]1)CC(N1Cc3cccc(Cl)c3C1)CC2` (stereo not drawn) [Example 186, 6-(4-chloroisoindolin-2-yl)-2-(2-chlorophenyl)-4,5,6,7-tetrahydro-1H-benzo[d]imidazole] are less than 100 nM and less than 100 nM.
The corresponding values for `Cn1c(-c2ccccc2Cl)nc2c1CC(N1CCc3cccc(Cl)c3C1)CC2` (stereo not drawn) [Example 187, 8-chloro-2-(2-(2-chlorophenyl)-1-methyl-4,5,6,7-tetrahydro-1H-benzo[d]imidazol-6-yl)-1,2,3,4-tetrahydroisoquinoline] are less than 100 nM and less than 100 nM.
The corresponding values for `Cn1c(-c2ccccc2Cl)nc2c1CCC(N1CCc3cccc(Cl)c3C1)C2` (stereo not drawn) [Example 188, 8-chloro-2-(2-(2-chlorophenyl)-1-methyl-4,5,6,7-tetrahydro-1H-benzo[d]imidazol-5-yl)-1,2,3,4-tetrahydroisoquinoline] are less than 100 nM and less than 100 nM.
Take `Cn1c(-c2ccccc2Cl)nc2c1CC(N1Cc3cccc(Cl)c3C1)CC2` (stereo not drawn) [Example 189, 6-(4-chloroisoindolin-2-yl)-2-(2-chlorophenyl)-1-methyl-4,5,6,7-tetrahydro-1H-benzo[d]imidazole]: the IC50 by setting is: under setting [1], less than 100 nM; under setting [2], less than 100 nM.
